Drawing on ChEMBL document CHEMBL1155569, “Synthesis and structures of regioisomeric hydnocarpin-type flavonolignans” (J Nat Prod, 2000), this text covers Activity for four compounds.

Activity calls are given as the source filed them. The rule behind the calls is not given here.

The target of this test is T1, Quinolone resistance protein NorA (Staphylococcus aureus) (UniProt P0A0J7).
T1 sequence (whole entry): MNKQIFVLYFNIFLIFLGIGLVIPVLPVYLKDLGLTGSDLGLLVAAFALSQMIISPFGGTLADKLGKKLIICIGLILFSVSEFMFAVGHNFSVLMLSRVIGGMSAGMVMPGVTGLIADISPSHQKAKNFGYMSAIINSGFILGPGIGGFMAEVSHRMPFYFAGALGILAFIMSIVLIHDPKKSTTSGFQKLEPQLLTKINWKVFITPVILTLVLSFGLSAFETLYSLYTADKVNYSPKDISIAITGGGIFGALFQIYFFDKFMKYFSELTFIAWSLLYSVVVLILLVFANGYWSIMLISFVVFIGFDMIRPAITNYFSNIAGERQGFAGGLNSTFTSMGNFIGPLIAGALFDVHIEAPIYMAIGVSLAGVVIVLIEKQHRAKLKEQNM
Description: Inhibition of Staphylococcus aureus NorA MDR efflux pump.
As to `COc1cc([C@H]2Oc3c(OC)cc(-c4cc(=O)c5c(O)cc(O)cc5o4)cc3O[C@@H]2CO)ccc1O` (racemic), the result was Active. Take `COc1cc([C@H]2Oc3cc(-c4cc(=O)c5c(O)cc(O)cc5o4)cc(OC)c3O[C@@H]2CO)ccc1O` (racemic): the result was Active. Take `COc1cc([C@H]2Oc3cc(-c4cc(=O)c5c(O)cc(O)cc5o4)ccc3O[C@@H]2CO)ccc1O` (racemic): the outcome was Active.

Consider `COc1cc([C@H]2Oc3ccc(-c4cc(=O)c5c(O)cc(O)cc5o4)cc3O[C@@H]2CO)ccc1O` (racemic), for which the result was Active.
